{
  "source": "ChEMBL document CHEMBL4152336",
  "about": "“Optimization of the first small-molecule relaxin/insulin-like family peptide receptor (RXFP1) agonists: Activation results in an antifibrotic gene expression profile” (Eur J Med Chem, 2018)",
  "key": {"Mus musculus [1]": {"tested_on": "Mus musculus", "test": "Toxicity in C57/BL6 mouse assessed as body weight at 300 mg/kg, po treated for 5 days measured at day 5 post last dose (reference value: 20.3 +/- 2.8 g)", "type": "organism-based", "details": "in vivo, 120 h"}, "Mus musculus [2]": {"tested_on": "Mus musculus", "test": "Toxicity in C57/BL6 mouse assessed as body weight at 90 mg/kg, po treated for 5 days measured at day 4 post last dose (reference value: 20.1 +/- 2.8 g)", "type": "organism-based", "details": "in vivo, 120 h"}, "Mus musculus [3]": {"tested_on": "Mus musculus", "test": "Toxicity in C57/BL6 mouse assessed as body weight at 300 mg/kg, po treated for 5 days measured at day 3 post last dose (reference value: 19.8 +/- 2.5 g)", "type": "organism-based", "details": "in vivo, 120 h"}, "Mus musculus [4]": {"tested_on": "Mus musculus", "test": "Toxicity in C57/BL6 mouse assessed as body weight at 300 mg/kg, po treated for 5 days measured at day 8 post last dose (reference value: 20.6 +/- 2.8 g)", "type": "organism-based", "details": "in vivo, 120 h"}, "Mus musculus [5]": {"tested_on": "Mus musculus", "test": "Toxicity in C57/BL6 mouse assessed as body weight at 300 mg/kg, po treated for 5 days measured at day 2 post last dose (reference value: 19.8 +/- 2.3 g)", "type": "organism-based", "details": "in vivo, 120 h"}, "Mus musculus [6]": {"tested_on": "Mus musculus", "test": "Toxicity in C57/BL6 mouse assessed as body weight at 3000 mg/kg, po treated for 5 days measured at day 2 post last dose (reference value: 19.8 +/- 2.3 g)", "type": "organism-based", "details": "in vivo, 120 h"}, "Mus musculus [7]": {"tested_on": "Mus musculus", "test": "Toxicity in C57/BL6 mouse assessed as body weight at 3000 mg/kg, po treated for 5 days measured at day 3 post last dose (reference value: 19.8 +/- 2.5 g)", "type": "organism-based", "details": "in vivo, 120 h"}, "Mus musculus [8]": {"tested_on": "Mus musculus", "test": "Toxicity in C57/BL6 mouse assessed as body weight at 3000 mg/kg, po treated for 5 days measured at day 5 post last dose (reference value: 20.3 +/- 2.8 g)", "type": "organism-based", "details": "in vivo, 120 h"}, "Mus musculus [9]": {"tested_on": "Mus musculus", "test": "Toxicity in C57/BL6 mouse assessed as body weight at 90 mg/kg, po treated for 5 days measured at day 5 post last dose (reference value: 20.3 +/- 2.8 g)", "type": "organism-based", "details": "in vivo, 120 h"}, "[10]": {"test": "Aqueous kinetic solubility of the compound in PBS by shake-flask method", "type": "physicochemical", "details": "PBS; read-out: Kinetic_solubility"}, "Mus musculus [11]": {"tested_on": "Mus musculus", "test": "Toxicity in C57/BL6 mouse assessed as body weight at 90 mg/kg, po treated for 5 days measured at day 10 post last dose (reference value: 20.7 +/- 2.6 g)", "type": "organism-based", "details": "in vivo, 120 h"}, "[12]": {"test": "Drug level in C57/BL6 mouse heart at 30 mg/kg, po after 0.5 hrs", "type": "ADME, organism-based", "details": "in vivo"}, "[13]": {"test": "Drug level in C57/BL6 mouse heart at 30 mg/kg, po after 7 hrs", "type": "ADME, organism-based", "details": "in vivo"}, "Mus musculus [14]": {"tested_on": "Mus musculus", "test": "Toxicity in C57/BL6 mouse assessed as body weight at 300 mg/kg, po treated for 5 days measured at day 10 post last dose (reference value: 20.7 +/- 2.6 g)", "type": "organism-based", "details": "in vivo, 120 h"}, "Homo sapiens": {"species": "Homo sapiens", "test": "Upregulation of PPARGC1A gene expression in human HSC at 5 uM after 24 to 72 hrs by RT-qPCR analysis", "type": "functional"}, "[15]": {"test": "Drug level in C57/BL6 mouse heart at 3 mg/kg, iv after 0.5 hrs", "type": "ADME, organism-based", "details": "in vivo"}},
  "note": "The source made the active and inactive calls. No cut-off for these calls is given here.",
  "data": [
    {"smiles": "CC(C)Oc1ccccc1C(=O)Nc1ccccc1C(=O)Nc1cccc(S(=O)(=O)C(F)(F)F)c1", "values": [
      {"measurement": "Activity", "setting": "Mus musculus [1]", "value": 20.6, "unit": "g"},
      {"measurement": "Activity", "setting": "Mus musculus [2]", "value": 20, "unit": "g"},
      {"measurement": "Activity", "setting": "Mus musculus [3]", "value": 20.4, "unit": "g"},
      {"measurement": "Activity", "setting": "Mus musculus [4]", "value": 21.2, "unit": "g"},
      {"measurement": "Activity", "setting": "Mus musculus [5]", "value": 20.1, "unit": "g"},
      {"measurement": "Activity", "setting": "Mus musculus [6]", "value": 20.6, "unit": "g"},
      {"measurement": "Activity", "setting": "Mus musculus [7]", "value": 20.6, "unit": "g"},
      {"measurement": "Activity", "setting": "Mus musculus [8]", "value": 20.8, "unit": "g"},
      {"measurement": "Activity", "setting": "Mus musculus [9]", "value": 20, "unit": "g"},
      {"measurement": "solubility kinetic", "setting": "[10]", "value": 7, "unit": "µM"},
      {"measurement": "Activity", "setting": "Mus musculus [11]", "value": 20.8, "unit": "g"},
      {"measurement": "Drug uptake", "setting": "[12]", "value": 1.428, "unit": "µmol/kg"},
      {"measurement": "Drug uptake", "setting": "[13]", "value": 0.067, "unit": "µmol/kg"},
      {"measurement": "Activity", "setting": "Mus musculus [14]", "value": 21.3, "unit": "g"},
      {"measurement": "Activity", "setting": "Homo sapiens", "value": "Active"},
      {"measurement": "Drug uptake", "setting": "[15]", "value": 2.001, "unit": "µmol/kg"}
    ]}
  ]
}
